Source: PubChem BioAssay AID814 (SRMLSC, 2007)
Calls of active or inactive are those of the source. The rule behind the calls is not given here.

System: cell imaging, HER kinase expression, mean fluorescence
Assay: HER kinase expression suppression, imaging readout – mean fluorescence, total cell number, dose response (AID 814)
[1] = measured here: total cell number (cytotoxicity)

SMILES	EC50	EC50 [1] [µM]
CC(=O)c1sc2nc(-c3cccs3)cc(C(F)(F)F)c2c1N	> 10 µM (inactive)	> 10
CS(=O)(=O)c1nc(-c2ccco2)cc(C(F)(F)F)n1	> 10 µM (inactive)	> 10
Cc1nc2nc(-c3ccco3)nn2c(C)c1Cl	9.52 µM	> 10
O=S1(=O)C=C(Sc2nc3ccccc3s2)c2ccccc21	5.41 µM	7.61
COc1ccc(C(=O)C(CN2CCCC2)c2ccccc2)cc1 (stereo not drawn)	8.27 µM	> 10
CSC1=N/C(=C\C=C\c2cccs2)C(=O)S1	> 10 µM (inactive)	> 10
O=S(=O)(CC(CN1CCCC1)N1CCCC1)c1ccc2ccccc2c1 (stereo not drawn)	7.75 µM	> 10
CS(=O)(=O)c1nc(-c2cccs2)cc(C(F)(F)F)n1	> 10 µM (inactive)	> 10
Cc1ccc(-c2csc3ncnc(Sc4nnc(CN5CCCCCC5=O)o4)c23)cc1	8.06 µM	> 10
O=S1(=O)C=C(Sc2nc3cc(Cl)ccc3o2)c2ccccc21	> 10 µM (inactive)	> 10
CCCCS(=O)(=O)/C=C\C=C/S(=O)(=O)CCCC	8.14 µM	7.52
Cc1ccc(CNC(=O)c2cc3c(-c4ccc(Cl)cc4)nn(C)c3s2)o1	> 10 µM (inactive)	> 10
COC(=O)c1sccc1NC(=O)c1ccc(Cl)s1	6.49 µM	> 10
O=C(CSc1nc2cc(Cl)ccc2s1)c1ccco1	> 10 µM (inactive)	> 10
Cc1nc(NC(=O)c2ccco2)sc1C(=O)Nc1ccc(Br)cc1	8.41 µM	> 10

Continued, in another order:

EC50	SMILES	EC50 [1] [µM]
8.72 µM	O=S1(=O)C=C(Sc2nnc(-c3ccccc3)o2)c2ccccc21	> 10
8.32 µM	CCN1/C(=C/C(=O)c2ccco2)Sc2ccccc21	> 10
8.31 µM	Cn1c(C(C#N)C(=O)c2ccco2)nc2ccccc21 (stereo not drawn)	> 10
9.35 µM	CCCn1c(NC(=O)c2ccco2)nc2ccccc21	> 10
8.3 µM	Cc1nn2c(-c3ccco3)nnc2c2ccccc12	> 10
6.95 µM	CN(C)CC(C(=O)c1ccccc1)c1ccccc1 (stereo not drawn)	> 10
4.69 µM	Nc1nnnn1/N=C/C(Br)=C/c1ccccc1	> 10
> 10 µM (inactive)	O=S(=O)(C/C(=C/CO)S(=O)(=O)c1ccccc1)c1ccccc1	> 10
> 10 µM (inactive)	CS(=O)(=O)c1nc(-c2ccccc2)cc(C(F)(F)F)n1	> 10
